Data: patent US20230346988A1, “SYSTEMS FOR IN VIVO MONITORING OF IMMUNE CELLS IN PATIENTS UNDERGOING CELLULAR IMMUNOTHERAPY” (Memorial Sloan Kettering Cancer Center, priority 2020, published 2023)

System: antitumor/anti-DOTA IgG-scFv
Assay: Affinity measurement of DOTA-PEG6 Biotin by surface plasmon resonance (Biacore)
Conditions: SA chip coated with DOTA-PEG6 Biotin, 1:1 binding model
From the text: Affinity measurement of […] by Surface Plasmon Resonance (Biacore). sBiacore T-100 Biosensor, streptavidin (SA) sensor chip, and related reagents were purchased from GE Healthcare. The SA chip coated with […] and then flowed over with an antitumor/anti-DOTA IgG-scFv. The KDs were generated from a sensorgram data series consisting of 6 concentrations of anti-tumor/anti-DOTA IgG-scFv, by fitting to a 1:1 binding model using the Biacore T-100 evaluation software.

Kd (6 concentrations of IgG-scFv): 0.0686 nM
kd (6 concentrations of IgG-scFv): 5.05e-05 s⁻¹
Structure (SMILES): O=C(O)CN1CCN(CC(=O)O)CCN(CC(=O)O)C(Cc2ccc(NC(=S)NCCOCCOCCOCCOCCOCCOCCNC(=O)CCCCC3SC[C@@H]4NC(=O)N[C@H]34)cc2)CN(CC(=O)O)CC1 (stereo partly shown) [DOTA-PEG6 Biotin]
t½: 3.811 h
ka (6 concentrations of IgG-scFv): 736000 M⁻¹ s⁻¹
